Source: the supplement of paper PMC10627819

Assays:
[1] = tested on: S. aureus Newman; assay: fitness (endpoint OD595 vs no drug) (fraction); higher = more growth; settings: one replicate
Procedure, shortened: (§1)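 Cultures at OD595 0.01 were dispensed into 384-well plates in TSB, LB Lennox or CY and incubated at 37 °C. Every 30 min for 14 h, OD595 was read and corrected by the first reading. Fitness is the optical density at entry into stationary phase relative to the robust mean of no-drug control wells, capped at 1.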

[2] = tested on: B. subtilis 168; assay: as above
Procedure, shortened: as §1

[3] = tested on: S. aureus Newman; assay: Bliss interaction score (quartile over a dose matrix) (fitness difference); higher = more antagonism (negative = synergy)
Procedure, shortened: (§2)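 Fitness was derived from optical density at entry into stationary phase, divided by the robust mean of the no-drug wells on the same plate. That reading was taken as OD595, and the ratio was capped at 1. Single-drug fitness was inferred from the combination data. The Bliss score, observed fitness minus the expected product of single-drug fitness, was summarised as quartiles over technical, biological and donor/recipient replicates.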

[4] = tested on: S. pneumoniae D39V; assay: as above
Procedure, shortened: as §2

[5] = tested on: B. subtilis 168; assay: as above
Procedure, shortened: as §2

[6] = tested on: S. aureus DSM 20231; assay: as above
Procedure, shortened: as §2
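Throughout, for Bliss interaction score (quartile over a dose matrix): first quartile when negative (synergy) and third quartile when positive (antagonism).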

CO/N=C(\C(=O)N[C@@H]1C(=O)N2C(C(=O)O)=C(COC(C)=O)CS[C@H]12)c1csc(N)n1 [Cefotaxime] + CO/N=C(\C(=O)N[C@@H]1C(=O)N2C(C(=O)O)=C(COC(N)=O)CS[C@H]12)c1ccco1 [Cefuroxime]
fitness, [1]
Settings | first compound 0.078 µg/mL | first compound 0.156 µg/mL | first compound 0.312 µg/mL
partner 0.04875 µg/mL | 0.834 | 0.698 | 0.384
partner 0.0975 µg/mL | 0.798 | 0.574 | 0.295
partner 0.195 µg/mL | 0.84 | 0.596 | 0.237

fitness, [2], one replicate
Settings | first compound 0.00775 µg/mL | first compound 0.0155 µg/mL | first compound 0.031 µg/mL | first compound 0.0625 µg/mL | first compound 0.125 µg/mL | first compound 0.25 µg/mL | first compound 0.5 µg/mL | first compound 1 µg/mL | first compound 2 µg/mL
partner 0.04875 µg/mL | – | – | – | 0.421 | 0.41 | 0.354 | 0.0782 | 0.0681 | 0.0589
partner 0.0975 µg/mL | – | – | – | 0.492 | 0.444 | 0.451 | 0.0682 | 0.0388 | 0.0337
partner 0.195 µg/mL | 0.236 | 0.172 | 0.176 | 0.329 | 0.331 | 0.305 | 0.0838 | 0.0517 | 0.0469
partner 0.39 µg/mL | 0.194 | 0.121 | 0.138 | – | – | – | – | – | –
partner 0.78 µg/mL | 0.147 | 0.0786 | 0.0789 | – | – | – | – | – | –
partner 1.562 µg/mL | – | – | – | – | – | – | 0.308 | 0.139 | 0.161
partner 3.125 µg/mL | – | – | – | – | – | – | 0.286 | 0.1 | 0.138
partner 6.25 µg/mL | – | – | – | – | – | – | 0.261 | 0.114 | 0.0944

Settings | Bliss interaction score
[3] | -0.0451
[4] | -0.0369
[5] | 0.0852
[6] | 0.107

CO/N=C(\C(=O)N[C@@H]1C(=O)N2C(C(=O)O)=C(COC(N)=O)CS[C@H]12)c1ccco1 [Cefuroxime] + CC1=C(C(=O)O)N2C(=O)[C@@H](NC(=O)[C@H](N)c3ccccc3)[C@H]2SC1 [Cephalexin]
fitness
Settings | first compound 0.04875 µg/mL | first compound 0.0975 µg/mL | first compound 0.195 µg/mL
[1], partner 0.5 µg/mL | 0.925 | 0.883 | 0.943
[1], partner 1 µg/mL | 0.99 | 0.917 | 0.941
[1], partner 2 µg/mL | ≥ 1 | 0.967 | 0.949
[2], partner 0.25 µg/mL | 0.709 | 0.683 | 0.507
[2], partner 0.5 µg/mL | 0.729 | 0.706 | 0.527

fitness, [2], one replicate
Settings | first compound 0.04875 µg/mL | first compound 0.0975 µg/mL | first compound 0.195 µg/mL | first compound 1.562 µg/mL | first compound 3.125 µg/mL | first compound 6.25 µg/mL
partner 0.125 µg/mL | 0.871 | 0.73 | 0.654 | 0.31 | 0.24 | 0.218
partner 0.25 µg/mL | – | – | – | 0.236 | 0.238 | 0.197
partner 0.5 µg/mL | – | – | – | 0.24 | 0.179 | 0.109
partner 1 µg/mL | 0.545 | 0.533 | 0.354 | – | – | –

Settings | Bliss interaction score
[3] | -0.0321
[4] | 0.0313
[5] | -0.0402
[6] | 0.0711

CO/N=C(\C(=O)N[C@@H]1C(=O)N2C(C(=O)O)=C(COC(N)=O)CS[C@H]12)c1ccco1 [Cefuroxime] + CC1=C\[C@@H](O)CC(=O)Cc2nc(co2)C(=O)N2CCC=C2C(=O)O[C@H](C(C)C)[C@H](C)/C=C/C(=O)NC\C=C\1 [Virginiamycin M1]
fitness
Settings | partner 0.0625 µg/mL | partner 0.125 µg/mL | partner 0.25 µg/mL
[1], first compound 0.04875 µg/mL | 0.927 | 0.952 | 0.943
[1], first compound 0.0975 µg/mL | 0.963 | 0.992 | 0.965
[1], first compound 0.195 µg/mL | 0.89 | 0.944 | 0.893
[2], first compound 0.04875 µg/mL | – | 0.76 | –
[2], first compound 0.195 µg/mL | 0.558 | 0.555 | 0.538

fitness, [2], one replicate
Settings | first compound 1.562 µg/mL | first compound 3.125 µg/mL | first compound 6.25 µg/mL
partner 0.0625 µg/mL | 0.334 | 0.259 | 0.239
partner 0.125 µg/mL | 0.325 | 0.26 | 0.208
partner 0.25 µg/mL | 0.309 | 0.217 | 0.182

Settings | Bliss interaction score
[3] | -0.0495
[4] | -0.0415
[5] | 0.0564
[6] | 0.103

CO/N=C(\C(=O)N[C@@H]1C(=O)N2C(C(=O)O)=C(COC(N)=O)CS[C@H]12)c1ccco1 [Cefuroxime] + CC(C1CCC(C(O1)OC2C(CC(C(C2O)OC3C(C(C(CO3)(C)O)NC)O)N)N)N)NC [Gentamicin]
fitness, main component drawn
Settings | first compound 0.04875 µg/mL | first compound 0.0975 µg/mL | first compound 0.195 µg/mL
[1], partner 1 µg/mL | 0.937 | 0.923 | 0.942
[1], partner 2 µg/mL | 0.867 | 0.723 | 0.628
[1], partner 4 µg/mL | 0.0568 | 0.0486 | 0.0654
[2], partner 0.0625 µg/mL | 0.708 | 0.675 | 0.587
[2], partner 0.125 µg/mL | – | 0.379 | 0.0507
[2], partner 0.25 µg/mL | 0.0653 | 0.0449 | 0.0518

fitness, [2], one replicate, main component drawn
Settings | first compound 0.39 µg/mL | first compound 0.78 µg/mL | first compound 1.562 µg/mL | first compound 3.125 µg/mL | first compound 6.25 µg/mL
partner 0.0625 µg/mL | 0.6 | 0.549 | 0.249 | 0.0632 | 0.0658
partner 0.125 µg/mL | 0.202 | 0.142 | 0.0288 | 0.0271 | 0.0297
partner 0.25 µg/mL | 0.152 | 0.0935 | 0.0323 | 0.029 | 0.0215

main component drawn
Settings | Bliss interaction score
[3] | -0.165
[4] | -0.0232
[5] | 0.0914
[6] | -0.313
